This is an account of results in patent US5032577A, “Peptidylaminodiols” (Abbott Laboratories, priority 1987, dated 1991).

pIC50: −log10 of the molar value. Where a name gives a salt, the structure may show the parent alone. Read-outs that look alike come from different tables or passages of the source.

One may read the pIC50 as the IC50 on a negative log10 scale, so that one unit is a factor of ten. Read a low pIC50 as a high IC50.

The assay deals with T1, human renal renin (Homo sapiens, UniProt P00797).
T1 construct: human renal renin, free from acid proteolytic activity; from tissue
T1 sequence (P00797 67-406): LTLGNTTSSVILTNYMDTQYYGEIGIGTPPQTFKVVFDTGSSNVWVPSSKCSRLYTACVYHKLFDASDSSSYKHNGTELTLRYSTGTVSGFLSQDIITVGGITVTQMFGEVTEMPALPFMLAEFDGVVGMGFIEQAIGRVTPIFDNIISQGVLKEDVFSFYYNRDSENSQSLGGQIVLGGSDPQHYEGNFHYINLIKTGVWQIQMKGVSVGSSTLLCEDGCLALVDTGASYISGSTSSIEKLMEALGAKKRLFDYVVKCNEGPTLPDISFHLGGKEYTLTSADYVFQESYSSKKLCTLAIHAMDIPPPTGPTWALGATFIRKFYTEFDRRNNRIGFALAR
Description: Inhibition of human renal renin in vitro; angiotensin I formed measured by radioimmunoassay. The assay is classed as biochemical.

Where [1] appears, read: human renal renin free from acid proteolytic activity, renin substrate human angiotensinogen, 37° C., pH 6.0.

In turn, `CC(C)C[C@H](O)[C@H](O)[C@H](CC1CCCCC1)NC(=O)[C@H](Cc1c[nH]cn1)NC(=O)C(CC(=O)N1CCOCC1)Oc1ccccc1` (single isomer, unassigned) [Example 141] showed a pIC50 of 8.26. The same measure, in the same setting: then `CC(C)C[C@H](O)[C@H](O)[C@H](CC1CCCCC1)NC(=O)[C@H](Cc1c[nH]cn1)NC(=O)C(CC(=O)N1CCOCC1)Cc1ccccc1` (single isomer, unassigned) [Example 143], with 9.52. For the compound `CC(C)(C)OC(=O)N[C@@H](Cc1ccccc1)C(=O)N[C@@H](Cc1c[nH]cn1)C(=O)N[C@@H](CC1CCCCC1)[C@@H](O)CO` [Example 6, Boc-Phe-His Amides of 3(S)-Amino-4-cyclohexyl-1,2(R)-dihydroxybutane], the pIC50 under setting [1] was 7.30.

As for `CC(C)C[C@H](O)[C@H](O)[C@H](CC1CCCCC1)NC(=O)[C@H](Cc1c[nH]cn1)NC(=O)[C@H](Cc1ccccc1)NC(=O)OC(C)(C)C` [Example 15, Boc-Phe-His Amide of 2(S)-Amino-l-cyclohexyl-3(R),4(S)-dihydroxy-6-methylheptane], under setting [1], the pIC50 is 8.82. Still for that read-out and setting: then `CC(C)C[C@H](O)[C@@H](O)[C@H](CC1CCCCC1)NC(=O)[C@H](Cc1c[nH]cn1)NC(=O)[C@H](Cc1ccccc1)NC(=O)OC(C)(C)C` [Example 16, Boc-Phe-His Amide of 2(S)-Amino-l-cyclohexyl-3(S),4(S)-dihydroxy-6-methylheptane], with 7.15. Compound `CC(C)C[C@@H](O)[C@H](O)[C@H](CC1CCCCC1)NC(=O)[C@H](Cc1c[nH]cn1)NC(=O)[C@H](Cc1ccccc1)NC(=O)OC(C)(C)C` [Example 17, Boc-Phe-His Amide of 2(S)-Amino-l-cyclohexyl-3(R),4(R)-dihydroxy-6-methylheptane] had a pIC50 of 7.46. As for `CC(C)C[C@@H](O)[C@@H](O)[C@H](CC1CCCCC1)NC(=O)[C@H](Cc1c[nH]cn1)NC(=O)[C@H](Cc1ccccc1)NC(=O)OC(C)(C)C` [Example 18, Boc-Phe-His Amide of 2(S)-Amino-l-cyclohexyl-3(S),4(R)-dihydroxy-6-methylheptane], under setting [1], the pIC50 was 7.02. In the case of `CC(C)C[C@H](O)[C@H](O)[C@H](CC1CCCCC1)NC(=O)[C@H](Cc1c[nH]cn1)NC(=O)[C@H](CC1CCCCC1)NC(=O)CC(C)(C)C` [Example 21, TBA-CHA-His Amide of 2(S)-Amino-l-cyclohexyl-3(R),4(S)-dihydroxy-6-methylheptane], the pIC50 was 8.70. With `CCOC(=O)N[C@@H](Cc1ccc(OC)cc1)C(=O)N[C@@H](Cc1c[nH]cn1)C(=O)N[C@@H](CC1CCCCC1)[C@@H](O)[C@@H](O)CC(C)C` [Example 22, Ethoxycarbonyl-(OCH3)Tyr-His Amide of 2(S)-Amino-1-cyclohexyl-3(R),4(S)-dihydroxy-6-methylheptane], the pIC50 under setting [1] was 8.82. `CC(=O)N(C)[C@@H](Cc1ccccc1)C(=O)N[C@@H](Cc1c[nH]cn1)C(=O)N[C@@H](CC1CCCCC1)[C@@H](O)[C@@H](O)CC(C)C` [Example 23, Acetyl-N-methylPhe-His Amide of 2(S)-Amino-1-cyclohexyl-3(R),4(S)-dihydroxy-6-methylheptane] showed a negative-log IC50 (pIC50) of 8.00.

Consider `CC(=O)O[C@@H](Cc1ccccc1)C(=O)N[C@@H](Cc1c[nH]cn1)C(=O)N[C@@H](CC1CCCCC1)[C@@H](O)[C@@H](O)CC(C)C` [Example 24, Ac-Pl-His Amide of 2(S)-Amino-l-cyclohexyl-3(R),4(S)-dihydroxy-6-methylheptane], for which the pIC50 is 8.70. On the same count and under the same terms, the value for `CC(C)C[C@H](O)[C@H](O)[C@H](CC1CCCCC1)NC(=O)[C@H](Cc1c[nH]cn1)NC(=O)C(Cc1ccccc1)Cc1ccccc1` [Example 27, Dba-His Amide of 2(S)-Amino-l-cyclohexyl-3(R),4(S)-dihydroxy-6-methylhectane] was 8.15; that for `CC(C)C[C@H](O)[C@H](O)[C@H](CC1CCCCC1)NC(=O)[C@H](Cc1c[nH]cn1)NC(=O)CCc1ccccc1` [Example 28, Pp-His Amide of 2(S)-Amino-l-cyclohexyl-3(R),4(S)-dihydroxy-6-methylheptane] was 7.10.

On to `CC(C)C[C@H](NC(=O)OC(C)(C)C)C(=O)N[C@@H](Cc1c[nH]cn1)C(=O)N[C@@H](CC1CCCCC1)[C@@H](O)[C@@H](O)CC(C)C` [Example 31, Boc-Leu-His Amide of 2(S)-Amino-l-cyclohexyl-3(R),4(S)-dihydroxy-6-methylheptane], for which the pIC50 under setting [1] was 9.00.

In the case of `CC(C)C[C@H](O)[C@H](O)[C@H](CC1CCCCC1)NC(=O)[C@H](C)NC(=O)[C@H](Cc1ccccc1)NC(=O)OC(C)(C)C` [Example 33, Boc-phe-Ala Amide of 2(S)-Amino-l-cyclohexyl-3(R),4(S)-dihydroxy-6-methylheptane], under setting [1], the pIC50 was 8.30. Under setting [1], `CC(C)C[C@H](O)[C@H](O)[C@H](CC1CCCCC1)NC(=O)[C@H](Cc1ccccc1)NC(=O)[C@H](Cc1ccccc1)NC(=O)OC(C)(C)C` [Example 34, Boc-Phe-Phe Amide of 2(S)-Amino-l-cyclohexyl-3(R),4(S)-dihYdroxy-6-methYlheptane] gave a pIC50 of 8.82. With `CCOC(=O)N[C@@H](Cc1ccccc1)C(=O)N[C@@H](CC(C)C)C(=O)N[C@@H](CC1CCCCC1)[C@@H](O)[C@@H](O)CC(C)C` [Example 36, Ethoxycarbonyl-phe-Leu Amide of 2(S)-Amino-cyclohexyl-3(R),4(S)-dihydroxy-6-methylheptane], the pIC50 is 9.40.

For the compound `CC(C)CC[C@H](O)[C@H](O)[C@H](CC1CCCCC1)NC(=O)[C@H](Cc1c[nH]cn1)NC(=O)[C@H](Cc1ccccc1)NC(=O)CC(C)(C)C` [Example 43, TBA-Phe-His Amide of 2(S)-Amino-1-cyclohexyl-3(R),4(S)-dihydroxy-7-methyloctane], the pIC50 was 8.30. As for `CC(C)[C@H](O)[C@H](O)[C@H](CC1CCCCC1)NC(=O)[C@H](Cc1c[nH]cn1)NC(=O)[C@H](Cc1ccccc1)NC(=O)OC(C)(C)C` [Example 46, Boc-Phe-His Amide of 2(S)-Amino-l-cyclohexyl-3(R),4(S)-dihydroxy-5-methylhexane], under setting [1], the pIC50 is 8.82. `CCOC(=O)N[C@@H](Cc1ccccc1)C(=O)N[C@@H](CC(C)C)C(=O)N[C@@H](CC1CCCCC1)[C@@H](O)[C@@H](O)CC` [Example 47, Ethoxycarbonyl-Phe-Leu Amide of 2(S)-Amino-1-cyclohexyl-3(R),4(S)-dihydroxyhexane] gave a pIC50 of 9.00. Compound `C[C@H](O)[C@H](O)[C@H](CC1CCCCC1)NC(=O)[C@H](Cc1c[nH]cn1)NC(=O)[C@H](Cc1ccccc1)NC(=O)OC(C)(C)C` [Example 49, Boc-Phe-His Amide of 2(S)-Amino-l-cyclohexyl-3(R),4(S)-dihydroxypentane] had a pIC50 under setting [1] of 8.70. Take `COc1ccc(C[C@H](N)C(=O)N[C@@H](CC(C)C)C(=O)N[C@@H](CC2CCCCC2)[C@@H](O)[C@@H](O)CC(C)C)cc1` [Example 55, H-(4-OCH3)Phe-Leu Amide of 2(S)-Amino-1-cyclohexyl-3(R),4(S)-dihydroxy-6-methylheptane]: the pIC50 was 8.70. `COc1ccc(C[C@@H](C(=O)N[C@@H](CC(C)C)C(=O)N[C@@H](CC2CCCCC2)[C@@H](O)[C@@H](O)CC(C)C)N(C)C)cc1` [Example 56, (N,N-Dimethyl,4-methoxy)-Phe-Leu Amide of 2(S)-Amino-1-cyclohexyl-3(R),4(S)-dihydroxy-6-methylheptane] gave a pIC50 of 8.26. The same measure, in the same setting: the value for `CC(C)C[C@H](NC(=O)[C@@H](N)Cc1ccccc1)C(=O)N[C@@H](CC1CCCCC1)[C@@H](O)[C@@H](O)CC(C)C` [Example 57, H-Phe-Leu Amide of 2(S)-Amino-l-cyclohexyl-3(R),4(S)-dihydroxY-6-methylheptane] was 8.12; that for `CC(C)C[C@H](NC(=O)[C@H](Cc1ccccc1)NCCC#N)C(=O)N[C@@H](CC1CCCCC1)[C@@H](O)[C@@H](O)CC(C)C` [Example 58, [N-(2-Cyanoethyl)]Phe-Leu Amide of 2(S)-Amino-1-cyclohexyl-3(R),4(S)-dihydroxy-6-methylheptane] was 8.15; that for `CC(C)C[C@H](O)[C@H](O)[C@H](CC1CCCCC1)NC(=O)[C@H](Cc1c[nH]cn1)NC(=O)[C@H](Cc1ccccc1)NC(=O)CCNC(=O)OCc1ccccc1` [Example 61, Cbz-β-Ala-Phe-His Amide of 2(S)-Amino-l-cyclohexyl-3(R),4(S)-dihydroxy-6-methylheptane] was 9.26. The compound `CC(C)C[C@H](O)[C@H](O)[C@H](CC1CCCCC1)NC(=O)[C@H](Cc1c[nH]cn1)NC(=O)[C@H](Cc1ccccc1)NC(=O)CCN` [Example 62, H-β-Ala-Phe-His Amide of 2(S)-Amino-l-cyclohexyl-3(R), 4(S)-dihydroxy-6-methylheptane Diacetic Acid Salt] showed a pIC50 of 8.70. Still for that read-out and setting: the value for `CC(C)C[C@H](O)[C@H](O)[C@H](CC1CCCCC1)NC(=O)[C@H](Cc1c[nH]cn1)NC(=O)[C@H](Cc1ccccc1)NC(=O)CN(C)C(=O)OCc1ccccc1` [Example 63, Cbz-Sar-phe-His Amide of 2(S)-Amino-l-cyclohexyl-3(R),4(S)-dihydroxy-6-methylheptane] was 9.35; that for `CNCC(=O)N[C@@H](Cc1ccccc1)C(=O)N[C@@H](Cc1c[nH]cn1)C(=O)N[C@@H](CC1CCCCC1)[C@@H](O)[C@@H](O)CC(C)C` [Example 64, H-Sar-Phe-His Amide of 2(S)-Amino-l-cyclohexyl-3(R),4(S)-dihydroxy-6-methylheptane Diacetic Acid Salt] was 8.52.
